Earlier results, collected in patent US11628185B2, “Stabilized active oxygen-generating antiseptic compositions, irrigation solutions, and articles” (priority 2021, dated 2023).

What was measured:
[1] = tested on: post-operative infection
[2] = tested on: osteoblasts, fibroblasts, and myoblasts
[3] = all tested concentrations, even dilute 0.35%; used for more than 1 minute
[4] = topical application prior to wound closure

## povidone-iodine
[1]; Mayo Clinic case series, more than 10,000 THAs and TKAs
  effect of lavage on post-operative infection risk: no risk reduction effect
[1]; meta-analysis March 2020, seven studies, 31,213 TJA cases
  post-operative infection rates versus non-povidone-iodine lavage: no differences
[2]
  effect on cell migration and survival: inhibiting cell migration and survival
[3]
  chondrotoxic effect: pronounced chondrotoxic effect
[4]
  serum iodine level: significant increases
